According to PubChem BioAssay (NCI):
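Where inhibition never reached the appropriate level, the endpoint shown equals the highest concentration tested. Otherwise, values were interpolated linearly from a five-concentration, 48-hour dose response in 96-well plates. TGI is the concentration that stops growth completely.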

What was measured:
Experiment in all cases: inhibition of tumour cell growth, NCI panel, 48 h
NCI/ADR-RES ovarian = tested on: NCI/ADR-RES ovarian
HCT-15 colon = tested on: HCT-15 colon
RPMI-8226 leukemia = tested on: RPMI-8226 leukemia
IGROV1 ovarian = tested on: IGROV1 ovarian
CAKI-1 renal = tested on: CAKI-1 renal
BT-549 breast = tested on: BT-549 breast
U251 CNS = tested on: U251 CNS
UACC-62 melanoma = tested on: UACC-62 melanoma
TK-10 renal = tested on: TK-10 renal
SN12C renal = tested on: SN12C renal
SF-295 CNS = tested on: SF-295 CNS
SF-539 CNS = tested on: SF-539 CNS
PC-3 prostate = tested on: PC-3 prostate
HS 578T breast = tested on: HS 578T breast
OVCAR-8 ovarian = tested on: OVCAR-8 ovarian
UACC-257 melanoma = tested on: UACC-257 melanoma
COLO 205 colon = tested on: COLO 205 colon
MDA-MB-231 breast = tested on: MDA-MB-231 breast
NCI-H460 lung = tested on: NCI-H460 lung

Row | Structure (SMILES) | TGI (NCI/ADR-RES ovarian) [µM] | TGI (HCT-15 colon) [µM] | TGI (RPMI-8226 leukemia) [µM] | TGI (IGROV1 ovarian) [µM] | TGI (CAKI-1 renal) [µM] | TGI (BT-549 breast) [µM] | TGI (U251 CNS) [µM] | TGI (UACC-62 melanoma) [µM] | TGI (TK-10 renal) [µM] | TGI (SN12C renal) [µM] | TGI (SF-295 CNS) [µM] | TGI (SF-539 CNS) [µM] | TGI (PC-3 prostate) [µM] | TGI (HS 578T breast) [µM] | TGI (OVCAR-8 ovarian) [µM] | TGI (UACC-257 melanoma) [µM] | TGI (COLO 205 colon) [µM] | TGI (MDA-MB-231 breast) [µM] | TGI (NCI-H460 lung) [µM]
1 | Cc1cc(NS(=O)(=O)c2ccc(N=[N+]([O-])c3ccc(S(=O)(=O)Nc4cc(C)on4)cc3)cc2)no1 | > 100 | > 100 | > 100 | > 100 | > 100 | > 100 | > 100 | > 100 | > 100 | > 100 | > 100 | > 100 | > 100 | > 100 | > 100 | > 100 | > 100 | > 100 | 
2 | CCOC(=O)CCC(NC(=O)c1ccc(NC(OC)c2nc3cc(C(F)(F)F)ccc3nc2-c2ccccc2)cc1)C(=O)OCC (stereo unspecified) |  | 34 | > 74.1 | 33.3 | 31.1 |  | 29.8 | 34.2 | 38.4 | 28.2 | 31.2 | 26.1 |  |  | 29.6 | 32.2 | 35.6 |  | 26.2
3 | CCOC(=O)C1=C(OC(OCC)C(CC)[Se]c2ccccc2)CCC1 (stereo unspecified) |  | 42.9 | 53.2 | > 100 | > 100 |  | 25.3 | 81.1 | > 100 | 47.2 | 65.5 | 37.4 |  |  | > 100 | 77.4 | > 100 |  | > 100
4 | CN1CCc2ccccc2C(C(=O)c2ccc3c(c2)OCO3)C1=O (stereo unspecified) |  | > 100 | > 100 | > 100 | > 100 |  | > 100 | > 100 | > 100 | > 100 |  |  |  |  | > 100 | > 100 | > 100 |  | > 100
5 | Cc1ccc(-c2cc(-c3ccccc3)c(C#N)c(=O)[nH]2)cc1 |  | > 100 | > 100 | > 100 |  |  | > 100 | > 100 | > 100 | > 100 | > 100 | > 100 |  |  | > 100 | > 100 | > 100 |  | > 100
6 | C=C1C(=O)O[C@H]2C1C[C@H](O)[C@@]1(C)OC1CC[C@@]1(C)O[C@H]21 (stereo partly specified) | 44 | 40.3 | 30.2 | 31 | 33.5 | 26.9 | > 100 | 28.2 | 36.5 | 32.4 | > 100 |  | 39.1 | > 100 | 39.6 | 37.8 | 16.9 |  | > 100
7 | COc1cc([C@@H]2c3cc4c(cc3[C@@H](NCc3cccc(C#N)c3)C3COC(=O)[C@@H]32)OCO4)cc(OC)c1O (stereo partly specified) |  | 3.17 | 7.33 | 15.2 | 20.8 |  | 1.93 | 2.93 | 6.84 | 2.93 | 7 | 1.94 |  |  | 4.56 | > 100 | 21.4 |  | 2.09
8 | C=C1C2=C(CCCC2)C(=O)OC12CCCCC2 |  | > 100 | > 100 | > 100 |  |  | > 100 | > 100 | > 100 | > 100 | > 100 | > 100 |  |  | > 100 | > 100 | > 100 |  | > 100
9 | OCC(O)C(O)C(O)c1nn(-c2ccc(F)cc2)c2nc3cc(Cl)c(Cl)cc3nc12 (stereo unspecified) |  | > 100 | > 100 | 63.6 | 55.6 |  | > 100 | 35.9 | 59.1 | 62.4 | > 100 | 39.2 |  |  | 23 | 55.1 | > 100 |  | 82.1
10 | COc1ccc(/C=C\c2cc(OC)c(OC)c(OC)c2)cc1 |  |  | > 100 | > 100 | 43.4 |  | 1.25 | > 100 |  | > 100 | 0.000719 | 0.00384 |  |  | > 100 |  | 11.5 |  | 15.6
11 | Cc1cc(C)nc(NS(=O)(=O)c2ccc(Nc3c4ccccc4nc4c(C(=O)NCCN(C)C)cccc34)cc2)n1 |  | 19.3 |  | 16.4 |  |  | 18.1 | 14.6 | 27.7 | 17.3 | 14.9 | 14.9 |  |  | 20.5 |  |  |  | 10.9
12 | CCCNCCCCC(NC(C)=O)C(=O)NCc1ccccc1 (stereo unspecified) |  | > 100 | > 100 | > 100 | > 100 |  | > 100 | > 100 | > 100 | > 100 | > 100 | > 100 |  |  | > 100 | > 100 | > 100 |  | > 100
13 | CC1(C)OC(=O)C(=C2CCC(C(=O)Nc3cccc(C(F)(F)F)c3)N2)C(=O)O1 (stereo unspecified) |  | > 100 | > 100 | > 100 | 26.6 |  | > 100 | > 100 | > 100 | > 100 | > 100 | > 100 |  |  | > 100 | > 100 | > 100 |  | > 100
14 | O=C(NCCN1CCCCC1)c1cccc(I)c1 | > 100 | > 100 | > 100 | > 100 | > 100 | > 100 | > 100 | > 100 | > 100 | > 100 |  | > 100 | > 100 | > 100 | > 100 |  |  |  | > 100
15 | COc1ccc(C2Cc3cc(OC)c(OC)c(OC)c3C2)cc1 (stereo unspecified) |  | > 100 | 98.9 | > 100 | > 100 |  | > 100 | > 100 | > 100 | > 100 | > 100 | > 100 |  |  | > 100 | > 100 | > 100 |  | > 100
16 | O=C(O)CSc1n[nH]c(-c2ccco2)n1 |  |  | > 100 | > 100 | > 100 |  | > 100 | > 100 | > 100 | > 100 | > 100 | > 100 |  |  | > 100 | > 100 | > 100 |  | > 100
17 | CCCCOC/N=C(/N)NC#N |  | 43.8 | > 100 | > 100 | > 100 |  | > 100 | > 100 | > 100 | > 100 | > 100 | > 100 |  |  | > 100 | > 100 | > 100 |  | > 100
18 | COC(=O)/C=C(\C)CCC1SC1(C)C (stereo unspecified) |  | > 100 | > 100 | > 100 | > 100 |  | > 100 | > 100 | > 100 | > 100 | > 100 | > 100 |  |  | > 100 | > 100 | > 100 |  | > 100
19 | CCCc1cc(OC(=O)c2c(O)cc(OC)cc2CCC)cc(O)c1C(=O)O |  |  | 60.7 | > 100 |  |  | 68.4 | 78.1 | > 100 |  |  | 34.7 |  |  | > 100 | 56.2 | 79.2 |  | 76.6
20 | COc1ccc(-c2nc(-c3cnccn3)n(C3OC(CO)C(O)C3O)n2)cc1 (stereo unspecified) | > 10 | > 10 |  |  |  | > 10 | > 10 | > 10 | > 10 | > 10 | > 10 | > 10 | > 10 |  | > 10 | > 10 |  |  | > 10
21 | CCCCCCCCC(O)c1ccc(/C=C\C(O)CCCC(=O)O)s1 (stereo unspecified) |  | > 100 | > 100 | > 100 |  |  | > 100 | > 100 | > 100 | > 100 | > 100 | > 100 |  |  | > 100 | > 100 | > 100 |  | > 100
22 | CN(C)CCN1CCc2c([nH]c3ccccc23)C1c1cccnc1 (stereo unspecified) |  | > 100 | > 100 | > 100 | > 100 |  | > 100 | > 100 | > 100 | > 100 | > 100 | > 100 |  |  | > 100 | > 100 |  |  | > 100
23 | O=C(/C=C/c1ccccc1O)c1ccccc1Cl |  | > 100 |  | > 100 | > 100 |  | > 100 | > 100 | > 100 | > 100 | > 100 | > 100 |  |  | > 100 | > 100 | > 100 |  | > 100
24 | O=[N+]([O-])c1cccc(Nc2nc(Cl)nc(Cl)n2)c1 |  | > 100 | > 100 |  | > 100 |  | > 100 | > 100 |  | > 100 | > 100 | > 100 |  |  | > 100 | > 100 | > 100 |  | > 100
25 | COc1ccc2[nH]c3c(c2c1)[C@H]1CCC(C(C)(C)C)C[C@H]1[C@H]1C(=O)N(c2ccccc2)C(=O)[C@@H]31 (stereo partly specified) |  | > 100 | > 100 | > 100 | > 36.6 |  | 19.2 | > 100 | > 74.1 | > 44.5 | > 42.5 | 18.1 |  |  | 28.1 | > 80.6 | > 79.2 |  | > 53.6
